How the values were obtained:
MAGL [1] = target: T1, MAGL (Mus musculus, UniProt O35678); assay: biochemical; details: mouse; in vitro competitive ABPP; read-out: Mouse (IC50 value, nM) MAGL
T1 sequence (O35678 1-303): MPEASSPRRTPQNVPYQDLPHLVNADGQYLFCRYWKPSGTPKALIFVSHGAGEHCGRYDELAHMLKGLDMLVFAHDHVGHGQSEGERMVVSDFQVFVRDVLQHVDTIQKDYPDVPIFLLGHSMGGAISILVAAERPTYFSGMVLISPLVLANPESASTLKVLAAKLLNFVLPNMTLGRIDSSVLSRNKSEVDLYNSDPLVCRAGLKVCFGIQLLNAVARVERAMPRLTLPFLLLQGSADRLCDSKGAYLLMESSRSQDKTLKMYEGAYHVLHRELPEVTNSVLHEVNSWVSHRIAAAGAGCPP

FAAH [2] = target: T2, FAAH (Mus musculus, UniProt O08914); assay: biochemical; details: in vitro competitive ABPP
T2 sequence (O08914 1-579): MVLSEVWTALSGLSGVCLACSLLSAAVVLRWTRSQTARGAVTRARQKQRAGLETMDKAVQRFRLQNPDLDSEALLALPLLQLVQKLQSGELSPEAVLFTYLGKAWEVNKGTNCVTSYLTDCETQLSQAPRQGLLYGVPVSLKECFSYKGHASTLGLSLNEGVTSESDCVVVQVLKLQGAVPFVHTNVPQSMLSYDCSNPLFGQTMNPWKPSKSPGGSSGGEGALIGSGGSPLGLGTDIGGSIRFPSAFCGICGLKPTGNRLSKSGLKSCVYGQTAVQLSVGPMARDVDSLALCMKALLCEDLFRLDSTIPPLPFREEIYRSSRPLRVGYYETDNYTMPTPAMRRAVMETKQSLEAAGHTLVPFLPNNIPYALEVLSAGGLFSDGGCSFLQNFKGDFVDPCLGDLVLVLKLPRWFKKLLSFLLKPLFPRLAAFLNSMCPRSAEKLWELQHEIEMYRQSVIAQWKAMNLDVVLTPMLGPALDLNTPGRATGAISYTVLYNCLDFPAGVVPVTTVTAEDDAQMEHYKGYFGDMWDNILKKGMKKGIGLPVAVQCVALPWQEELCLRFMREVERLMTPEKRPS

ABHD6 [3] = target: T3, ABHD6 (Mus musculus, UniProt Q8R2Y0); assay: In vitro competitive activity-based protein profiling (Table 2, % inhibition at 1 μM); type: biochemical; details: read-out: % Inhibition at 1 μM ABHD6
T3 sequence (Q8R2Y0 1-336): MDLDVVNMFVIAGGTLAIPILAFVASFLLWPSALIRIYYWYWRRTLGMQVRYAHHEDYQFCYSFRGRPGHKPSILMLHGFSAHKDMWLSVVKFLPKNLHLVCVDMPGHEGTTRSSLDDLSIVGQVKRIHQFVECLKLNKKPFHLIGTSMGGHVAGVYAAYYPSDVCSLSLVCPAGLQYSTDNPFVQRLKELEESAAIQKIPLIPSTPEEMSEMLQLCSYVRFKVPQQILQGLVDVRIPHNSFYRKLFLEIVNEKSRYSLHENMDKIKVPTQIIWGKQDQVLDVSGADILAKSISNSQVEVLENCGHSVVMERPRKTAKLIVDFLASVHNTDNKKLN

FAAH [4] = target: T2, FAAH; assay: as above; type: biochemical; details: read-out: % Inhibition at 1 μM FAAH
MAGL [5] = target: T1, MAGL; assay: as above; type: biochemical; details: read-out: % Inhibition at 1 μM MAGL
Protocol: After 30 min, FP—Rh (1.0 μL, 50 μM in DMSO) was added and the mixture was incubated for another 30 min at 37° C. Reactions were quenched with SDS loading buffer (50 μL-4×) and run on SDS-PAGE.
Cell lysates were diluted with mock proteomes for use in competitive ABPP experiments.

ABHD6 [6] = target: T3, ABHD6; assay: biochemical; details: in vitro competitive ABPP

Row | Compound | IC50 (MAGL [1]) [nM] | IC50 (FAAH [2]) [nM] | inhibition at 1 µM (ABHD6 [3]) [%] | inhibition at 1 µM (FAAH [4]) [%] | inhibition at 1 µM (MAGL [5]) [%] | IC50 (ABHD6 [6]) [nM]
1 | O=C(OC(C(F)(F)F)C(F)(F)F)N1CC2CN(Cc3ccc(N4CCOCC4)cc3OC(F)(F)F)CC2C1 (stereo not drawn) [Example 11, 1,1,1,3,3,3-Hexafluoropropan-2-yl 5-[[4-(morpholin-4-yl)-2-(trifluoromethoxy)phenyl]methyl]-octahydropyrrolo[3,4-c]pyrrole-2-carboxylate] | < 100 | 100 to 1000 | < 25 | > 75 | > 75 | 100 to 1000
2 | CC(=O)N1CCN(c2cc(F)ccc2CN2CC3CN(C(=O)OC(C(F)(F)F)C(F)(F)F)CC3C2)CC1 (stereo not drawn) [Example 17, 1,1,1,3,3,3-Hexafluoropropan-2-yl 5-[[2-(4-acetylpiperazin-1-yl)-4-fluorophenyl]methyl]-octahydropyrrolo[3,4-c]pyrrole-2-carboxylate] | 100 to 1000 | 1000 to 10000 | < 25 | 25 to 75 | > 75 | 1000 to 10000
3 | O=C(OC(C(F)(F)F)C(F)(F)F)N1CC2CN(Cc3ccc(F)cc3N3CCCC3)CC2C1 (stereo not drawn) [Example 15, 1,1,1,3,3,3-Hexafluoropropan-2-yl 5-[[4-fluoro-2-(pyrrolidin-1-yl)phenyl]methyl]-octahydropyrrolo[3,4-c]pyrrole-2-carboxylate] | 100 to 1000 | 1000 to 10000 | < 25 | 25 to 75 | > 75 | 1000 to 10000
4 | O=C(ON1C(=O)CCC1=O)N1CC2CN(Cc3ccccc3-c3ccccc3)CC2C1 (stereo not drawn) [Example 87, 2,5-Dioxopyrrolidin-1-yl-5-[(2-phenylphenyl)methyl]-octahydropyrrolo[3,4-c]pyrrole-2-carboxylate] | 100 to 1000 | 100 to 1000 | 25 to 75 | 25 to 75 | > 75 | 1000 to 10000
5 | CC1COCCN1c1ccc(CN2CC3CN(C(=O)OC(C(F)(F)F)C(F)(F)F)CC3C2)c(Cl)c1 (stereo not drawn) [Example 27, 1,1,1,3,3,3-Hexafluoropropan-2-yl 5-[[2-chloro-4-(3-methylmorpholin-4-yl)phenyl]methyl]-octahydropyrrolo[3,4-c]pyrrole-2-carboxylate] | < 100 | 1000 to 10000 | < 25 | 25 to 75 | > 75 | 1000 to 10000
6 | Cc1ccc(CN2CC3CN(C(=O)OC(C(F)(F)F)C(F)(F)F)CC3C2)cc1-c1ccccc1 (stereo not drawn) [Example 206, 1,1,1,3,3,3-hexafluoropropan-2-yl 5-((6-methyl-[1,1′-biphenyl]-3-yl)methyl)hexahydropyrrolo[3,4-c]pyrrole-2(1H)-carboxylate] | 100 to 1000 | 1000 to 10000 | 25 to 75 | 25 to 75 | > 75 | 1000 to 10000
7 | O=C(OC(C(F)(F)F)C(F)(F)F)N1CC2CN(Cc3cccc(Cl)c3N3CCC(F)(F)CC3)CC2C1 (stereo not drawn) [Example 158, 1,1,1,3,3,3-hexafluoropropan-2-yl 5-[[3-chloro-2-(4,4-difluoropiperidin-1-yl)phenyl]methyl]-octahydropyrrolo[3,4-c]pyrrole-2-carboxylate] | 100 to 1000 | > 10000 | < 25 | < 25 | > 75 | 1000 to 10000
8 | Cn1nc(-c2ccccc2)cc1CN1CC2CN(C(=O)OC(C(F)(F)F)C(F)(F)F)CC2C1 (stereo not drawn) [Example 194, 1,1,1,3,3,3-hexafluoropropan-2-yl 5-((1-methyl-3-phenyl-1H-pyrazol-5-yl)methyl)hexahydropyrrolo[3,4-c]pyrrole-2(1H)-carboxylate] | < 100 | 1000 to 10000 | < 25 | 25 to 75 | > 75 | 1000 to 10000
9 | O=C(OC(C(F)(F)F)C(F)(F)F)N1CC2CN(Cc3ccc(Cl)cc3N3CC4COCC4C3)CC2C1 (stereo not drawn) [Example 208, 1,1,1,3,3,3-hexafluoropropan-2-yl 5-(4-chloro-2-(tetrahydro-1H-furo[3,4-c]pyrrol-5(3H)-yl)benzyl)hexahydropyrrolo[3,4-c]pyrrole-2(1H)-carboxylate] | 100 to 1000 | 1000 to 10000 | < 25 | < 25 | > 75 | 1000 to 10000
10 | O=C(OC(C(F)(F)F)C(F)(F)F)N1CC2CN(Cc3cc(CN4CCCCC4)ccc3OC(F)(F)F)CC2C1 (stereo not drawn) [Example 189, 1,1,1,3,3,3-hexafluoropropan-2-yl 5-(5-(piperidin-1-ylmethyl)-2-(trifluoromethoxy)benzyl)hexahydropyrrolo[3,4-c]pyrrole-2(1H)-carboxylate] | 100 to 1000 | 1000 to 10000 | < 25 | < 25 | > 75 | 1000 to 10000
11 | O=C(OC(C(F)(F)F)C(F)(F)F)N1CC2CN(Cc3ccc(Cl)cc3N3CCC4(CCOCC4)C3)CC2C1 (stereo not drawn) [Example 31, 1,1,1,3,3,3-Hexafluoropropan-2-yl 5-[(4-chloro-2-[8-oxa-2-azaspiro[4.5]decan-2-yl]phenyl)methyl]-octahydropyrrolo[3,4-c]pyrrole-2-carboxylate] | < 100 | 1000 to 10000 | < 25 | < 25 | > 75 | 1000 to 10000
12 | Cc1cccc(-c2cc(CN3CC4CN(C(=O)OC(C(F)(F)F)C(F)(F)F)CC4C3)n(C)n2)c1 (stereo not drawn) [Example 196, 1,1,1,3,3,3-hexafluoropropan-2-yl 5-((1-methyl-3-(m-tolyl)-1H-pyrazol-5-yl)methyl)hexahydropyrrolo[3,4-c]pyrrole-2(1H)-carboxylate] | < 100 | 1000 to 10000 | < 25 | < 25 | > 75 | 1000 to 10000
13 | O=C(OC(C(F)(F)F)C(F)(F)F)N1CC2CN(Cc3ccc(Cl)cc3N3CCC3)CC2C1 (stereo not drawn) [Example 39, 1,1,1,3,3,3-Hexafluoropropan-2-yl 5-[[2-(azetidin-1-yl)-4-chlorophenyl]methyl]-octahydropyrrolo[3,4-c]pyrrole-2-carboxylate] | < 100 | 100 to 1000 | < 25 | 25 to 75 | > 75 | 1000 to 10000
14 | O=C(OC(C(F)(F)F)C(F)(F)F)N1CC2CN(Cc3cccc(N4CCOCC4)c3Cl)CC2C1 (stereo not drawn) [Example 49, 1,1,1,3,3,3-Hexafluoropropan-2-yl 5-[[2-chloro-3-(morpholin-4-yl)phenyl]methyl]-octahydropyrrolo[3,4-c]pyrrole-2-carboxylate] | < 100 | 1000 to 10000 | < 25 | 25 to 75 | > 75 | 1000 to 10000
15 | CC1COCCN1c1cc(Cl)ccc1CN1CC2CN(C(=O)OC(C(F)(F)F)C(F)(F)F)CC2C1 (stereo not drawn) [Example 20, 1,1,1,3,3,3-Hexafluoropropan-2-yl 5-[[4-chloro-2-(3-methylmorpholin-4-yl)phenyl]methyl]-octahydropyrrolo[3,4-c]pyrrole-2-carboxylate] | < 100 | 1000 to 10000 | < 25 | < 25 | > 75 | 1000 to 10000
16 | O=C(OC(C(F)(F)F)C(F)(F)F)N1CC2CN(Cc3ccc(C(F)F)cc3N3CCCC3)CC2C1 (stereo not drawn) [Example 205, 1,1,1,3,3,3-hexafluoropropan-2-yl 5-(4-(difluoromethyl)-2-(pyrrolidin-1-yl)benzyl)hexahydropyrrolo[3,4-c]pyrrole-2(1H)-carboxylate] | < 100 | 1000 to 10000 | < 25 | < 25 | > 75 | 1000 to 10000

Source: US9828379B2 (priority 2013, dated 2017)
